Several values for one entry are separate records, joined by “and”; a condition that tells them apart may be missing. Equal values may be shown once. Read-outs that look alike come from different tables or passages of the source. Marks after values point to notes of the source that are not given here.
Key:
[1] = tested on: P-gp (mdr1a/b) influence on antinociception; set-up: species or system mice; conditions: mouse, in vivo; for Influence of P-gp ablation on antinociceptive activity: sc
recombinant human P-gp [2] = biological target: T1, recombinant human P-gp (Homo sapiens, UniProt P08183); conditions: cited from earlier work
[3] = ref Casy and Parfitt, 1986; cited from earlier work
recombinant human P-gp [4] = biological target: T1, recombinant human P-gp
[5] = mouse, in vivo
μ receptor = conditions: read-out: Ki at μ receptor, as determined by DEC, NIDA, ref DEC; cited from earlier work
[6] = tail-flick, hotplate and paraphenylquinone assays; ref DEC, NIDA; cited from earlier work
[7] = in vivo; cited from earlier work
[8] = 20 mg/kg, for 45 min in wild type mice; ref Thompson et al., 2000; cited from earlier work

T1 sequence (P08183 whole entry): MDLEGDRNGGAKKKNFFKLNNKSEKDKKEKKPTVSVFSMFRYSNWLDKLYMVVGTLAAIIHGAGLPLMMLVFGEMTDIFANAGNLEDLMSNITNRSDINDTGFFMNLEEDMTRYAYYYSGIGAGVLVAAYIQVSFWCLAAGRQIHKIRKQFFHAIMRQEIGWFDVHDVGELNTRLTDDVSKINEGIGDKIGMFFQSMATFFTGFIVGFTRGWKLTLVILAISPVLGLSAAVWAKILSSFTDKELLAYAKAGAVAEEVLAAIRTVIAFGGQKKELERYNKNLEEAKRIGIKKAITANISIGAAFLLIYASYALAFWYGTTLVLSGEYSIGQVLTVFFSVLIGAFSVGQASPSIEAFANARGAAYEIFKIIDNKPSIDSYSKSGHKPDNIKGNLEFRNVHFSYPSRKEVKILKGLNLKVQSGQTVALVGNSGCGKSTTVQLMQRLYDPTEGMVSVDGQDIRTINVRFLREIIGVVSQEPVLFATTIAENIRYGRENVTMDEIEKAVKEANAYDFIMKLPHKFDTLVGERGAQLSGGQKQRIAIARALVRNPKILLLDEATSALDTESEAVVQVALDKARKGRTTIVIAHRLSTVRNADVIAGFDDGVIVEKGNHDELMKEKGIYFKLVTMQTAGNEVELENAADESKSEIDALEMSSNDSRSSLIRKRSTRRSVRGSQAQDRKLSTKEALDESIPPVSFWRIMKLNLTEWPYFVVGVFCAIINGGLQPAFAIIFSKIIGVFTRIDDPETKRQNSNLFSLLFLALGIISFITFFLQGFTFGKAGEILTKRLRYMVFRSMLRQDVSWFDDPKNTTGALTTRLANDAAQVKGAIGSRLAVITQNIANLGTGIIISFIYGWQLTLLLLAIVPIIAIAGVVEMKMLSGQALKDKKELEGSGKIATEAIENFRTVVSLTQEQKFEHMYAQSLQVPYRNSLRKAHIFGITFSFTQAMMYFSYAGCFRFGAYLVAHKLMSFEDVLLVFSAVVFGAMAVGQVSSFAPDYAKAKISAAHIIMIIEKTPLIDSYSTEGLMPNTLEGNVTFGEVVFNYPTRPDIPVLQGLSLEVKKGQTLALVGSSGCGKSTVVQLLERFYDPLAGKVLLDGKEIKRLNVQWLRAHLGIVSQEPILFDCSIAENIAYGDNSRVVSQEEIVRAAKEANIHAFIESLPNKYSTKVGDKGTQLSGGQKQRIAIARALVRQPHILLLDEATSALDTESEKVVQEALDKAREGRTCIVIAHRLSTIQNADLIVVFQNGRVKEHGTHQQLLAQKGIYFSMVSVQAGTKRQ

**Q.** Which results are given for CCOC(=O)C1(c2ccccc2)CCN(C)CC1 [Meperidine]?
**A.** AUEC ratio mdr1a/b (−/−)/mdr1a/b (+/+) [1]: 1.14 ± 0.2; mdr1a/b (+/+) (AUEC) [1]: 6752.14 ± 917.94 %MPE × min; mdr1a/b (−/−) (AUEC) [1]: 7678.40 ± 851.59 %MPE × min; Influence of P-gp ablation on antinociceptive activity [1]: no significant influence; Fold stimulation of basal P-gp-ATPase activity (recombinant human P-gp [2]): 1.51 ± 0.29 fold; Intravenous to intraventricular ED10 ratio [3]: 8.5

**Q.** What does the source list for CN1CC[C@]23c4c5ccc(O)c4O[C@H]2CC=C[C@H]3[C@H]1C5 [6-Desoxymorphine]?
**A.** AUEC ratio mdr1a/b (−/−)/mdr1a/b (+/+) [1]: 1.14 ± 1.08 and 1.17 ± 0.17; Maximum %MPE reached [1]: 100%; Influence of P-gp ablation on antinociceptive activity [1]: no significant influence; P-gp affinity status from P-gp ATPase assay (recombinant human P-gp [4]): not to be P-gp substrates; Fold stimulation of basal P-gp-ATPase activity (recombinant human P-gp [4]; human): 1.01 ± 0.11 fold; Signs of toxicity [5]: no apparent toxicity; Ki (μ receptor): 2.9 nM; Potency relative to morphine (times as potent) [6]: ~ 10 times

**Q.** With COc1ccc2c3c1O[C@H]1[C@@H](O)C=C[C@H]4[C@@H](C2)N(C)CC[C@@]341 [Codeine] as the molecule, how does the “Fold stimulation of basal P-gp-ATPase activity” value (recombinant human P-gp [4]; human) read?
**A.** The value was 1.36 ± 0.07 ^b fold.

**Q.** And the “Rate of ATP consumption versus non-treated control (significance)” value (recombinant human P-gp [4]; human)?
**A.** The value was “significantly different (p < 0.05)”.

**Q.** Which “P-gp affinity status from P-gp ATPase assay” value (recombinant human P-gp [4]) does the source give for CN1CC[C@]23c4c5ccc(O)c4O[C@H]2C(=O)CC[C@@]3(O)[C@H]1C5 [Oxymorphone] here?
**A.** The value was “not to be P-gp substrates”.

**Q.** And the “Fold stimulation of basal P-gp-ATPase activity” value (recombinant human P-gp [4]; human)?
**A.** The value was 1.12 ± 0.12 fold.

**Q.** And the “Stimulation of P-gp ATPase activity (significance)” value (recombinant human P-gp [4]; human)?
**A.** Its value is “did not significantly (p > 0.05) stimulate”.

**Q.** What about the “Potency relative to morphine (times as potent)” value [7] of the same molecule?
**A.** The value was “approximately 10 times”.

**Q.** With CN1CC[C@]23c4c5ccc(O)c4O[C@H]2[C@@H](O)C=C[C@H]3[C@H]1C5 [Morphine] as the molecule, how does the “%MPE reached” value [8] read?
**A.** Its value is ~ 95 %MPE.

**Q.** For C=CCN1CC[C@]23c4c5ccc(O)c4O[C@H]2C(=O)CC[C@@]3(O)[C@H]1C5 [Naloxone], which “Fold stimulation of basal P-gp-ATPase activity” value (recombinant human P-gp [4]; human) is on record?
**A.** Its value is 1.25 ± 0.11 fold.

**Q.** What about the “Stimulation of P-gp ATPase activity (significance)” value (recombinant human P-gp [4]; human) of the same molecule?
**A.** The value was “did not significantly (p > 0.05) stimulate”.

**Q.** With COc1ccc2c3c1O[C@H]1CC=C[C@H]4[C@@H](C2)N(C)CC[C@]314 [6-Desoxycodeine] as the molecule, how does the “P-gp affinity status from P-gp ATPase assay” value (recombinant human P-gp [4]) read?
**A.** The value was “not to be P-gp substrates”.

**Q.** And the “Fold stimulation of basal P-gp-ATPase activity” value (recombinant human P-gp [4]; human)?
**A.** The value was 1.31 ± 0.15 fold.

From PMC3401594 (International Journal of Pharmaceutics, 2009)
